Assay results reported in PubChem BioAssay (NCI).
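1) Cells in 96-well plates. 2) Compound, 48 h, 5 concentrations. 3) Linear interpolation between surrounding doses. 4) Unreached endpoint = highest concentration. Here, GI50 denotes the concentration required for 50% inhibition of growth. TGI denotes the concentration required for complete inhibition of growth.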

Experiments:
Assay in all cases: NCI anticancer screen, dose series, 48 h
[1] = system: DU-145 prostate
[2] = system: UACC-257 melanoma
[3] = system: CAKI-1 renal
[4] = system: MALME-3M melanoma
[5] = system: K-562 leukemia
[6] = system: T-47D breast
[7] = system: RPMI-8226 leukemia
[8] = system: U251 CNS
[9] = system: SF-268 CNS
[10] = system: 786-0 renal
[11] = system: MDA-N

| SMILES | GI50 [1] | TGI [1] | GI50 [2] | TGI [2] | TGI [3] | TGI [4] | TGI [5] | TGI [6] | TGI [7] | TGI [8] | TGI [9] | TGI [10] | TGI [11] |
| --- | --- | --- | --- | --- | --- | --- | --- | --- | --- | --- | --- | --- | --- |
| Fc1ccc2[nH]cc(-c3nc(-c4c[nH]c5ccncc45)cs3)c2c1 | 1.69 µM | 3.1 µM | 1.91 µM | 3.58 µM |  |  |  |  |  |  |  |  |  |
| COc1ccc(N2CN(C)CSC2=S)cc1 |  | > 100 µM |  | > 100 µM | > 100 µM | > 100 µM | > 100 µM | > 100 µM | > 100 µM | > 100 µM | > 100 µM |  |  |
| COc1cc(NS(C)(=O)=O)ccc1NCc1cnc2ccc3[nH]cccc3c12 |  | > 70.3 µM |  | 32 µM | > 72.7 µM | 43.4 µM | 41 µM | 50.8 µM | 29.8 µM | > 81.2 µM | 55.3 µM | 54 µM |  |
| Cn1c(=O)c2c(nc3n2CCC(=O)N3CCCCl)n(C)c1=O |  | > 100 µM |  | > 100 µM |  |  | > 100 µM | > 100 µM | > 100 µM | > 100 µM | > 100 µM | > 100 µM | > 100 µM |
| N=S(=O)(c1ccccc1)c1ccccc1 |  |  |  | > 100 µM | > 100 µM | > 100 µM | > 100 µM |  | > 100 µM | > 100 µM | > 100 µM |  |  |
| Clc1ccc2nc3n[nH]c(Cl)c3nc2c1 |  | > 100 µM |  | > 100 µM | > 100 µM |  | > 100 µM | > 100 µM | > 100 µM | > 100 µM | > 100 µM | > 100 µM | > 100 µM |
| Brc1c2nc3ccccc3nc2n2ccc3ccccc3c12 |  |  |  | > 100 µM | > 100 µM | > 100 µM | > 100 µM |  | > 100 µM | > 100 µM | > 100 µM | > 100 µM |  |
| C[N+](C)=c1ccc2nc3c(ccc4ccccc43)oc-2c1 |  |  |  | 16.4 µM | 28.9 µM | 26.1 µM | 9.39 µM |  | > 64.7 µM | 29.5 µM | 29.7 µM | 28.9 µM |  |
| Cc1nc2ccccc2c(=O)n1NC(=O)c1ccccc1[N+](=O)[O-] |  | > 100 µM |  | > 100 µM |  | > 100 µM | > 100 µM | > 100 µM | > 100 µM | > 100 µM | > 100 µM | > 100 µM |  |
| Nc1nc(Nc2ccc(Cl)cc2)sc1C(=O)c1c[nH]c2ccccc12 |  | 38.9 µM |  | 19.7 µM |  | 31.2 µM | > 100 µM | 92.3 µM | > 100 µM | 25.1 µM | 60 µM | 15.6 µM | 25.3 µM |
| N#CNC(=NCc1ccccc1)NCCc1c[nH]c2ccccc12 |  |  |  | > 100 µM |  |  | > 100 µM |  | > 100 µM | > 100 µM | > 100 µM | 83.5 µM |  |
| CC(=O)OC12CC(C(F)(F)F)(C(F)(F)F)OC1(OC(C)=O)CC(C(F)(F)F)(C(F)(F)F)O2 (stereo unspecified) |  | 70.4 µM |  | > 100 µM |  | > 100 µM | > 100 µM | 8.56 µM | 7.61 µM | 19.2 µM | 6.37 µM | 12.4 µM | > 100 µM |
| Nc1nc2c(c(-c3ccccc3Cl)n1)COC/C2=C\c1ccccc1Cl |  | 32.6 µM |  | 34.7 µM | 31.9 µM |  | 32 µM | 44.8 µM | 35.2 µM | 31.6 µM | 34.3 µM | 33.1 µM | 24.1 µM |
| Cc1c(-c2coc(-c3ccccc3)n2)c(=O)n(-c2ccccc2)n1C |  |  |  | > 100 µM |  | > 100 µM |  |  | > 100 µM | > 100 µM | > 100 µM | > 100 µM |  |
| C/C=C/c1cc2c(c(=O)o1)C(=O)[C@@H](O)[C@H](C)O2 |  |  |  | 31.8 µM | 31.3 µM | 32.5 µM | > 100 µM |  | 34.5 µM | 32.9 µM | 30 µM |  |  |
| N/C(=N\NC(=O)c1nc2ccccc2s1)c1ccccn1 |  | > 40.2 µM |  | > 79.8 µM |  | > 100 µM | > 77.8 µM | > 100 µM | 26.8 µM | > 60.9 µM | > 100 µM | 22.9 µM | > 100 µM |
| C=C1C2C[C@@H]3OC4CC5O[C@]6(CC5OC4C(C)C3OC(=O)CC3CC[C@@H]4OC5C7OC8C[C@](CCC9CC(=C)[C@H](CCC(C[C@H]1C)O2)O9)(OC7C4O3)O[C@@H]85)C[C@@H]1O[C@@]2(CC(C)[C@@H]3OC(CC(=O)CCO)C(O)C[C@@H]3O2)CC(C)[C@@H]1O6 (stereo partly specified) |  |  |  | 1.52 µM | 0.877 µM | 0.189 µM |  |  |  |  | 1.61 µM | 1.09 µM |  |
| COCCOC(C)C(=O)C(O)S(=O)(=O)O (stereo unspecified) |  | > 100 µM |  | > 100 µM |  | > 100 µM | > 100 µM | > 100 µM | > 100 µM | > 100 µM | > 100 µM | > 100 µM | > 100 µM |
| O=C(NC12CC3CC(CC(C3)C1)C2)C(=O)c1c[nH]c2ccc(Br)cc12 |  |  |  | > 100 µM | > 100 µM | 68.6 µM | 47.2 µM |  | > 100 µM | 49.2 µM | 34.2 µM | 20.5 µM |  |
| O=C(CNc1nccs1)Nn1cnc2ccc(S(=O)(=O)Nc3nccs3)cc2c1=O |  | > 100 µM |  | > 100 µM | > 100 µM | > 100 µM | > 100 µM |  | > 100 µM | > 100 µM | > 100 µM | > 100 µM | > 100 µM |
| C=CC(C)(C)C1(CC(OC)OC)C(=O)N(C)c2ccccc21 (stereo unspecified) |  | > 25 µM |  | > 25 µM | > 25 µM |  | > 25 µM | > 25 µM | > 25 µM | > 25 µM | > 25 µM | > 25 µM | > 25 µM |
| CCCCOc1c(C(=O)O)cc(Br)cc1C(=O)O |  |  |  | > 100 µM | > 100 µM | > 100 µM | > 100 µM | > 100 µM | > 100 µM | > 100 µM | > 100 µM | > 100 µM | > 100 µM |
| O=C(O)CN1CCCC(Cc2c[nH]c3ccccc23)C1 (stereo unspecified) |  | > 100 µM |  | > 100 µM | > 100 µM | > 100 µM | > 100 µM |  |  |  | > 100 µM |  | > 100 µM |
| CO[C@H]1CC[C@]2(C)C3=CC[C@@]4(C)C(CC[C@@H]4C(C)CC[C@@H](C)C(C)C)C(=CCC2C1)O3 (stereo partly specified) |  |  |  | > 25 µM | > 25 µM | > 25 µM | > 25 µM |  | > 25 µM | > 25 µM | > 25 µM | > 25 µM |  |
